Laboratory results from US7625875B2 (priority 2002, dated 2009).
Read-outs that look alike come from different tables or passages of the source.

What was measured:
[1] = tested on: HepG2 cells; assay: Cellular DNA synthesis, [3H]-thymidine incorporation; conditions: read-out: CC50 DNA ([3H]Thymidine); 50% reduction of thymidine incorporation into cellular DNA
[2] = tested on: MA-104, Rhesus monkey kidney cells; assay: Cytotoxicity, MA-104; conditions: Parainfluenza type 3 line
[3] = tested on: HSV-2; assay: Antiviral activity, HSV-2 (HFF); format: cell-based; conditions: Human alphaherpesvirus 2
[4] = tested on: HepG2 cells; assay: Cellular RNA synthesis, [3H]-uridine incorporation; conditions: read-out: CC50 RNA ([3H]Uridine); 50% reduction of uridine incorporation into cellular RNA
[5] = tested on: West Nile Virus; assay: microbe, parasite or virus in culture; format: cell-based; conditions: BHK
[6] = tested on: VZV; assay: Antiviral activity, VZV (HFF); format: cell-based; conditions: Human alphaherpesvirus 3
[7] = tested on: MEF mouse embryo fibroblasts; assay: Cytotoxicity assay, MEF; conditions: MCMV (MEF) line
[8] = tested on: Influenza A/H3N2; assay: Antiviral activity, Influenza A/H3N2 (MDCK); format: cell-based; conditions: Influenza A virus
[9] = tested on: VEE; assay: microbe, parasite or virus in culture; format: cell-based; conditions: Venezuelan equine encephalitis virus, Vero
[10] = tested on: Adenovirus type 1; assay: Antiviral activity, Adenovirus type 1 (A549); format: cell-based; conditions: Human mastadenovirus C
[11] = tested on: MT-4 human T-lymphocyte cells; conditions: human
[12] = in vitro; conditions: hamster
[13] = tested on: RSV type A; assay: Antiviral activity, RSV type A (MA-104); format: cell-based; conditions: human respiratory syncytial virus, MA104
[14] = tested on: Influenza A/H1N1; assay: Antiviral activity, Influenza A/H1N1 (MDCK); format: cell-based; conditions: Influenza A virus
[15] = Cytotoxicity (cell proliferation) assay, HepG2; conditions: human, HepG2 cells
[16] = tested on: Polio Virus Sb-1; assay: organism not typed; format: cell-based; conditions: Vero
[17] = tested on: BVDV RNA; assay: Intracellular BVDV RNA by Real Time RT-PCR in de novo-infected MDBK cells; format: cell-based, bovine viral diarrhea virus
[18] = tested on: Sb-1; assay: organism not typed; format: cell-based, Sabin type 1 poliomyelitis virus
[19] = tested on: LLC-MK2, Rhesus monkey kidney cells; conditions: Punta Toro A line
[20] = tested on: HepG2 cells; assay: Mitochondria toxicity assay, lactic acid production, HepG2; conditions: for L-Lactate (% of Control): 4 days
[21] = tested on: BVDV; format: cell-based, bovine viral diarrhea virus; conditions: for EC4 log: MDBK
[22] = tested on: Huh7 cells; assay: Mitochondria toxicity assay, lactic acid production, Huh7; conditions: 4 days
[23] = tested on: BVDV (strain I-N-dIns), noncytopathic; format: cell-based, bovine viral diarrhea virus
[24] = tested on: DENV-2; assay: microbe, parasite or virus in culture; format: cell-based; conditions: Dengue virus, DENV2, read-out: composite EC50 range
[25] = in vitro; conditions: African green monkey
[26] = Stability in human plasma; conditions: 37° C.
[27] = tested on: HepG2 cells; assay: Mitochondrial DNA content; format: cell-based, human
Protocol: To assess the potential of mCyd to produce mitochondrial toxicity, several in vitro studies were conducted using the human hepatoma cell lines HepG2 or Huh7.
The significance of this finding is unclear, particularly since mCyd is unlikely to attain a plasma concentration of 50 μM in the clinic. For comparison, lactic acid production increases by 100% over control cells in cells treated with 10 μM FIAU (Cui L, Yoon, et al. J. Clin. Invest. 1995; 95:555-563).

[28] = tested on: human cytidine/deoxycytidine deaminase enzymes; conditions: 37° C.
[29] = tested on: HIV; format: cell-based
[30] = tested on: Rhinovirus type 2; assay: microbe, parasite or virus in culture; format: cell-based; conditions: Enterovirus
[31] = tested on: MCMV; assay: Antiviral activity, MCMV (MEF); format: cell-based
[32] = tested on: Parainfluenza type 3; assay: Antiviral activity, Parainfluenza type 3 (MA-104); format: cell-based; conditions: MA104
[33] = tested on: HepG2 cells; assay: Transmission electron microscopy of mitochondrial ultrastructure
[34] = tested on: MDCK, canine kidney cells; assay: Cytotoxicity, MDCK; format: cell-based
[35] = tested on: HeLa, human cervical adenocarcinoma cells; assay: Cytotoxicity, HeLa-Ohio; format: cell-based; conditions: Rhinovirus type 14 line
[36] = tested on: REO-1; assay: microbe, parasite or virus in culture; format: cell-based, double-stranded RNA Reovirus; conditions: Reovirus sp., read-out: REO
[37] = tested on: HSV-1; assay: Antiviral activity, HSV-1 (HFF); format: cell-based; conditions: Human alphaherpesvirus 1
[38] = tested on: CVB-2; assay: organism not typed; format: cell-based, Coxsackie B-2 virus; conditions: read-out: EC50 CVB-2

CC1(O)C(O)C(CO)OC1n1ccc(N)nc1=O (stereo not drawn) [mCyd, 4-Amino-1-(3,4-dihydroxy-5-hydroxymethyl-3-methyl-tetrahydro-furan-2-yl)-1H-pyrimidine-2-one] gave a CC50 [1] of 112 ± 34.5 µM, a CC50 [2] greater than 200 µM and an EC50 [3] greater than 100 µg/mL. It also gave a CC50 [4] of 186 ± 28.2 µM, an EC50 [5] of 63 to 97 µM and an EC50 [6] greater than 20 µg/mL. It also gave a CC50 [7] of 2400 nM, an EC50 [8] greater than 20 µM and an EC50 [9] of 1.3 to 45 µM. For the same compound, the EC50 [10] was greater than 200 µM, the CC50 [11] was 34 µM and the CC50 [12] was greater than 100 µM. For the same compound, the EC50 [13] was greater than 200 µM, the EC50 [14] was greater than 200 µM and the CC50 [15] was 200 µM. The EC50 [16] was 6 µM, the “effect on the level of the rig S15 cellular mRNA control” value [17] was “No effect” and the “maximum viral RNA reduction” value ([17]; highest inhibitor concentration tested (125 μM)) was 4 log10. For the same compound, the EC50 ([18]; read-out: EC50 Sb-1) was 6 µM, the EC50 ([18]; read-out: Sb-1) was 11.5 µM and the CC50 [19] was greater than 200 µM. The “L-Lactate (% of Control)” value ([20]; 10 μM) was 98.6 ± 7.3 % of Control, the “increase in lactic acid production” value ([20]; 50 μM) was 38% and the “L-Lactate (% of Control)” value ([20]; 50 μM) was 138.0 ± 8.9 % of Control. For the same compound, the EC4 log ([21]; BVDV I-N-dIns ncp (recombinant)) was 7.14 μM, the EC4 log ([21]; BVDV I-NADL cp (recombinant)) was 8.22 μM and the “suppression of de novo BVDV production” value ([21]; subcytotoxic concentrations (circa 20 μM)) was “up to 6 logs”. The “L-Lactate (% of Control)” value ([22]; 10 μM) was 98.0 ± 12.3 % of Control, the “L-Lactate (% of Control)” value ([22]; 50 μM) was 97.1 ± 10.1 % of Control and the “reduction of BVDV titer” value ([23]; 4 μM, one cell passage (3 days)) was “approximately 3 log10”. For the same compound, the “reduction of virus production” value ([23]; 8 μM) was 6.2 log10, the virus production ([23]; 16 μM, within two cell passages, from more than 6 logs of virus per ml) was “undetectable levels” and the EC50 [24] was 59 to 95 µM. The CC50 [25] was greater than 100 µM, the “in vitro stability, deamination to mUrd” value [26] was “remained essentially unchanged” and the “mtDNA/nuclear DNA (% of Control)” value ([27]; 10 μM, 6 day treatment) was 117.3 ± 17.5 % of Control. The “mtDNA/nuclear DNA (% of Control)” value ([27]; 10 μM, 14 day treatment) was 99.7 ± 23.9 % of Control, the “mtDNA/nuclear DNA (% of Control)” value ([27]; 50 μM, 6 day treatment) was 158.2 ± 17.5 % of Control and the “mtDNA/nuclear DNA (% of Control)” value ([27]; 50 μM, 14 day treatment) was 83.0 ± 15.5 % of Control. For the same compound, the “in vitro stability, deamination to mUrd” value [28] was “remained essentially unchanged”, the “activity against HIV” value [29] was “no activity” and the EC50 [30] was 2 to 10 µM. The EC50 [31] was greater than 800 nM, the EC50 [32] was greater than 200 µM and the “Electron Microscopy, Lipid Droplet Form.” value ([33]; 10 μM, 14 days) was “Negative”. The “Electron Microscopy, Mito. Morphol.” value ([33]; 10 μM, 14 days) was “Normal^d”, the “cells in which 1 to 2 mitochondria out of an average of 25 appeared enlarged” value ([33]; 14 days of exposure to 10 μM) was 17% and the CC50 ([34]; Influenza A/H1N1 line) was greater than 200 µM. The CC50 ([34]; Influenza A/H3N2 line) was 45 to 65 µM, the CC50 ([34]; Influenza B line) was 55 to 140 µM and the CC50 [35] was 20->100 μg/mL. For the same compound, the EC50 [36] was 13 µM, the EC50 [37] was greater than 100 µg/mL and the EC50 [38] was 11 µM.
